Laboratory results from ChEMBL document CHEMBL3399993, “Design and synthesis of novel quinoline-aminopiperidine hybrid analogues as Mycobacterium tuberculosis DNA gyraseB inhibitors” (Bioorg Med Chem, 2015).
Values after ≈ are worked out from the molar mass of the structure shown.

Test system: Mycobacterium tuberculosis
Experiment: Antimycobacterial activity against extensively drug resistant Mycobacterium tuberculosis
Assay type: functional

Compound | MIC
COc1ccc2nc(C)cc(N3CCC(NC(=S)Nc4ccc([N+](=O)[O-])cc4)CC3)c2c1 | 1.72 µM (≈ 0.777 µg/mL)
COc1ccc2nc(C)cc(N3CCC(NC(=S)Nc4ccccc4)CC3)c2c1 | 7.62 µM (≈ 3.1 µg/mL)
Cc1cc(N2CCC(NC(=O)Nc3ccc(F)cc3)CC2)c2cc(F)ccc2n1 | 3.82 µM (≈ 1.51 µg/mL)
COc1ccc2nc(C)cc(N3CCC(NC(=S)Nc4ccc(Cl)cc4)CC3)c2c1 | 6.94 µM (≈ 3.06 µg/mL)
